Assay [1] concerns acetylcholine. Kind of assay: Test Procedure 7: acetylcholine-induced bronchoconstriction in anesthetized guinea pigs. Format: in vivo, guinea pig. The conditions noted are these: 100 mg/kg p.o. The protocol:
Guinea pigs, weighing 250-350 g were anesthetized with 1.5 g/kg i.p. of urethane and prepared for measurements of resistance to pulmonary inflation using a slightly modified Konzett-Rossler preparation (see Test Procedure 2). Histamine phosphate (5 μg/kg as base) was injected four times at 5 minute intervals in order to ascertain that the maximum bronchoconstrictor responsiveness has been obtained. Acetylcholine was injected intravenously at […] 5 minutes following the last injection of histamine and the increase in intratracheal pressure was recorded. Compound b or aminophylline (100 mg/kg p.o.) or the control vehicle were administered to five guinea pigs each, 1 hour before the injection of acetylcholine (1/2 hour before the anesthesia).

For assay [2], the system named is serotonin. Kind of assay: Test Procedure 6: serotonin-induced bronchoconstriction in anesthetized guinea pigs. Format: in vivo, guinea pig. As to conditions: iv 5.0 mg/kg; P 0.01. The protocol:
Guinea pigs, weighing 275-340 g, were anesthetized and prepared for measurements of resistance to pulmonary inflation using a slightly modified Konzett-Rossler method (see Test Procedure 2). All guinea pigs received 0.1 mg/kg of propranolol iv and 5 minutes later, 50 mcg/kg of serotonin (creatinine complex) iv. Compound b or cyproheptadine were administered iv just before the injection of propranolol at 50 or 5 mg/kg, respectively. Compound b was prepared as a 5% solution in 5% N-methylglucamine and cyproheptadine as a 0.25% aqueous solution.

In assay [3] the test system is bradykinin.
Description: Antagonism of bradykinin-induced bronchoconstriction in guinea pigs was determined by measuring increases in resistance to artificial pulmonary inflation (Konzett-Rossler preparation). […] Due to large variations in bronchoconstricting responses among individual guinea pigs, each guinea pig serves as its own control and was challenged with bradykinin twice. The second response to bradykinin was expressed as percent of the first response to bradykinin. […] All guinea pigs having a first bradykinin response of less than 12 mm Hg were rejected as poor responders. […] In order to augment the bronchoconstrictor response, each guinea pig received 100 mcg propranolol/kg, iv, 5 minutes before the first injection of bradykinin (30 mcg/kg, iv). […] Five minutes after the injection of a test compound the guinea pigs received the second injection of bradykinin and the peak of the response determined. The effects of both test compounds were expressed as % inhibition of bradykinin-induced increase in bronchial resistance to forced inflation, as compared to the levels of bronchial resistance following iv administration of their respective solvent controls.
The subject of assay [4] is bradykinin. The conditions noted are these: guinea pigs; cited from earlier work.
Assay [5] relates to SRS-A. In words: Test Procedure 2: inhibition of SRS-A-induced bronchoconstriction in anesthetized guinea pigs (Konzett-Rossler). Format: in vivo, guinea pig. As to conditions: for inhibition of SRS-A-induced increases in resistance to inflation: intravenous. An excerpt: SRS-A was harvested as described in Test Procedure 1 described hereinabove. A slightly modified Konzett-Rossler preparation [Arch. […] Guinea pigs weighing 350 to 450 g were anesthetized ip with 1.5 g/kg urethane. The jugular vein and trachea were cannulated and the guinea pigs were artificially respired at a rate of 40 strokes/minute. […] A side arm of the inflationary air cannula was connected to a pressure transducer and resistance to pulmonary inflation continuously recorded. […] Studies with SRS-A commenced after each guinea pig had attained maximum bronchoconstrictor response to histamine. […] The effects of the test compounds were studied by measuring SRS-A-induced bronchoconstriction side-by-side in two guinea pigs, one medicated and one control. Subsequent medicated/control pairs were alternated on two respiratory pumps. In this manner, the gradual decomposition of SRS-A and differences between the two pump/recorder systems, if any, were controlled. The dose (volume) of each sample of SRS-A was adjusted in each pair to keep the peaks of increases in bronchial resistance in control guinea pigs within 13 to 40 mmHg. Bronchoconstriction following injection of SRS-A was measured two ways; as the peak increase in resistance to inflation and, in view of the occasional irregular bronchoconstriction response curves following injection of SRS-A, as the sum of increases in bronchoconstriction over 10 minutes (pressure/time units). Pressure/time units were calculated by measuring the area under the curve of inflationary resistance where ordinates were set at 10 mm of pen excursion/10 mm pressure Hg and the abscissas were set at 15 mm of paper travel/minute. […] SRS-A-induced bronchoconstriction (increase in resistance) was calculated as the area under the curve and over the normal base line of resistance to inflation. […] The effects of the test compounds upon SRS-A-induced bronchoconstriction were expressed as ratios of the peaks and as ratios of the pressure/time units between the paired medicated and control guinea pigs. The consistency of paired responses to SRS-A in nonmedicated guinea pigs was determined in the same manner, by alternating the ratios of the results of guinea pigs on pumps one and two. […] SRS-A was injected 5 minutes after these latter injections. Compound b was prepared as a solution in 2% N-methylglucamine and used within 3 hours. […] Control guinea pigs received injections of the respective solvent vehicles. In order to compare the activities of compound b following iv and po routes of administration, compound b was also administered orally. […] Control guinea pigs received 2% N-methylglucamine. Fifteen minutes later, the guinea pigs were anesthetized, cannulated, and prepared for injections of SRS-A as described. The procedure was timed so that SRS-A was injected 1 hour after the oral administration of compound b. In a separate experiment, using the same methodology, the duration anti-SRS-A activity of compound b was determined after oral administration. Compound b was finely ground in a tissue homogenizer and prepared as a suspension in 0.5% gum tragacanth. A dose of 10 mg/kg was administered and anti-SRS-A effect studied at 1, 4 and 7 hr postmedication. The ratios of peak increases in intratracheal pressure between paired medicated and control guinea pigs was used to calculate percent inhibition.

The subject of assay [6] is SRS-A. In words: Test Procedure 3: SRS-A-induced increase in resistance to pulmonary inflation in anesthetized cats. The assay is classed as in vivo, cat. The protocol:
The trachea of each cat was cannulated, and the cats were artificially respired at 15 strokes/minute with a stroke volume of 22 ml/kg. A side-arm of the intratracheal cannula was connected to a Statham transducer, and the intratracheal pressure was recorded continuously on a polygraph. One femoral vein was cannulated in all cats receiving intravenous administration of drugs. In addition, most of the cats were cannulated through the femoral artery; this cannula was attached to another Statham transducer, and the blood pressure of these cats recorded. All cats received 1.0 mg/kg of propranolol and 0.2 mg/kg of thenyldiamine intravenously 3 minutes before iv injection of SRS-A. SRS-A was obtained from rat peritoneal cavities as described previously in Test Procedure 1. Each pool of rat ip fluid containing SRS-A was dose-ranged and a dose selected that was estimated to cause an average increase in intrapulmonary resistance to inflation in control cats by 4-6 mmHg. Test dose volumes ranged from 1.0 to 2.0 ml/kg, iv. […] Both test compounds and the sodium hydroxide vehicle were injected iv 5 minutes before the injections of SRS-A (2 minutes before the injection of propranolol and thenyldiamine).

Assay [7] deals with serotonin. As to conditions: guinea pig, in vivo; cited from earlier work.
For assay [8], the system named is SRS-A. As to conditions: guinea pigs; cited from earlier work.
Assay [9] deals with SRS-A. Kind of assay: Test Procedure 3: SRS-A-induced increase in resistance to pulmonary inflation in anesthetized cats. Format: in vivo, cat. The source holds these as a separate data set.
The test system of assay [10] is acetylcholine. The conditions noted are these: guinea pig, in vivo; cited from earlier work.
For assay [11], the system named is SRS-A. Kind of assay: Test Procedure 1: antagonism of SRS-A-induced bronchoconstriction in unanesthetized guinea pigs. The assay is classed as in vivo, guinea pig. The conditions noted are these: for ED50: Cavia porcellus, po, read-out: AED50; for ED50 / Potency (Phenylbutazone = 1) (95% confidence limits): 1 hour before SRS-A; for Potency (Phenylbutazone = 1) (95% confidence limits): p.o.
Description: The test compounds were administered orally to four guinea pigs/group 1 hour before the SRS-A challenge. The test compounds were prepared as suspensions in 1% gum tragacanth. Bronchoconstriction was graded 1+ to 3+ according to severity (1+ denoted restlessness and slight thoracic dyspnea, 2+ denoted moderate thoracic dyspnea and 3+ denoted convulsive dyspnea, regardless of whether the guinea pig died of asphyxiation or recovered).

SMILES strings stand for the structures. Where two headings read alike, the source gives them in different places.

With `Cn1c(=O)c2[nH]cnc2n(C)c1=O` [Aminophylline, aminophylline, reference compound], in the assay on acetylcholine [1], the % Inhibition (usually the change of the read-out against control, counted positive when it falls) came to 70%; the “Peak Increase in Intracheal Pressure, mm Hg” value was determined as 7 ± 1 mm Hg; the “effect against acetylcholine-induced bronchoconstriction” value is reported as “inhibition of acetylcholine responses”.

Turning to `CN1CCC(=C2c3ccccc3C=Cc3ccccc32)CC1` [Cyproheptadine, cyproheptadine, reference compound], in the assay on serotonin [2], the “Increase in Resistance (mm Hg)” value turned out to be 5 ± 1 mm Hg and the Inhibition % amounted to 89%.

For the compound `CCCCC1C(=O)N(c2ccccc2)N(c2ccccc2)C1=O` [Na Phenylbutazone], the “% Inhibition” value in the assay on bradykinin [3] (iv 1.0 mg/kg) is 20%; with bradykinin [3] (iv 3.3 mg/kg) it was 50%; in the assay with bradykinin [3] (iv 10.0 mg/kg) it was 56%; in the assay with bradykinin [3] (iv 33.0 mg/kg) it was 50%. The “Average Increase In Bronchial Resistance (2nd Response in % of 1st Response ± S.E.)” value with bradykinin [3] (iv 1.0 mg/kg) turned out to be 64 ± 12%; in the assay on bradykinin [3] (iv 3.3 mg/kg), 40 ± 9%; in the assay with bradykinin [3] (iv 10.0 mg/kg), 35 ± 11%; with bradykinin [3] (iv 33.0 mg/kg) it was 40 ± 7%.

For `CCCCC1C(=O)N(c2ccccc2)N(c2ccccc2)C1=O` [Phenylbutazone, phenylbutazone, reference compound], in the assay on bradykinin [3] (iv 33 mg/kg, remaining five guinea pigs), the “inhibition of bradykinin-induced bronchoconstriction” value is “further dose-related inhibition”. Further, the “inhibition of bradykinin-induced increase in bronchial resistance” value in the assay with bradykinin [3] (iv 3.3 and 10 mg/kg) is given as “significantly inhibited”. For the same compound, in the assay with bradykinin [4], the “effect on bradykinin-induced bronchoconstriction” value is listed as “inhibit”. Besides, the “% Inhibition (peak increase in resistance)” value was 0% in the assay with SRS-A [5] (i.v. 1.0 mg/kg), 59% in the assay with SRS-A [5] (i.v. 3.3 mg/kg), 72% with SRS-A [5] (i.v. 10 mg/kg) and 89% with SRS-A [5] (i.v. 33 mg/kg). Moreover, the “% Inhibition (sum of increase in resistance over 10 min)” value in the assay on SRS-A [5] (i.v. 1.0 mg/kg) was 0%; with SRS-A [5] (i.v. 3.3 mg/kg), 56%; in the assay with SRS-A [5] (i.v. 10 mg/kg), 81%; in the assay on SRS-A [5] (i.v. 33 mg/kg) it was 90%. The “inhibition of SRS-A-induced increases in resistance to inflation” value is “inhibited SRS-A-induced increases in resistance to inflation in a dose-related manner” with SRS-A [5]; “nearly complete inhibition” with SRS-A [5] (10 and 33 mg/kg). Further, the “% Inhibition” value in the assay with SRS-A [6] (intravenous 10.1 mg/kg) came to 21%; with SRS-A [6] (intravenous 33.0 mg/kg), 100%; with SRS-A [9] (oral 10.0 mg/kg) it was 25%; in the assay with SRS-A [9] (oral 33.0 mg/kg), 98%. Besides, the “Max. Increase in Resistance to Pulm. Inflation, mm Hg ± S.E.” value is listed as 4.7 ± 1.5 mm Hg with SRS-A [6] (intravenous 10.1 mg/kg), 0 mm Hg with SRS-A [9] (intravenous 33.0 mg/kg), 3.0 ± 0.9 mm Hg in the assay on SRS-A [9] (oral 10.0 mg/kg) and 0.1 ± 0.1 mm Hg in the assay on SRS-A [9] (oral 33.0 mg/kg). Further, the “inhibition of SRS-A-induced increase in resistance to inflation” value in the assay with SRS-A [6] (intravenous 33 mg/kg) is given as “complete inhibition”. Moreover, the “effect on serotonin-induced bronchoconstriction” value in the assay on serotonin [7] was “ineffective”. In addition, the “effect on SRS-A-induced bronchoconstriction” value in the assay with SRS-A [8] was “inhibit”. The ED50 in the assay on SRS-A [9] (Felis catus, 5 min, intravenous, read-out: iv AED50) is 16 mg/kg. The “effect on acetylcholine-induced bronchoconstriction” value in the assay with acetylcholine [10] is given as “ineffective”. Also, the “Incidence of Severe Bronchospasms, %” value with SRS-A [11] (1.6 mg/kg p.o.) is given as 62%; in the assay on SRS-A [11] (6.2 mg/kg p.o.), 34%; in the assay on SRS-A [11] (25 mg/kg p.o.) it was 15%; in the assay on SRS-A [11] (100 mg/kg p.o.), 4%. In addition, the “Incidence of Severe Bronchospasms, No. Bronchosp./No. Tested” value with SRS-A [11] (1.6 mg/kg p.o.) was 47/77; with SRS-A [11] (6.2 mg/kg p.o.) it was 29/86; in the assay with SRS-A [11] (25 mg/kg p.o.) it was 21/147; with SRS-A [11] (100 mg/kg p.o.), 2/46.

Take `O=C(O)C1CCc2c(c3ccccc3n2C(=O)c2ccccc2)C1` (stereo not shown) [a, 9-benzoyl-1,2,3,4-tetrahydrocarbazole-3-carboxylic acid]: in the assay with SRS-A [11], the ED50 came to 10 mg/kg and the “Potency (Phenylbutazone = 1) (95% confidence limits)” value (from here on “Potency … (95% confidence limits)”) is on record as 1.1 (0.53.8).

As to `CC(=O)Oc1ccccc1C(=O)O` [aspirin], the “effect on bradykinin-induced bronchoconstriction” value in the assay on bradykinin [4] is recorded as “inhibit”. Further, the “effect on serotonin-induced bronchoconstriction” value in the assay on serotonin [7] is “ineffective”. Moreover, the “effect on SRS-A-induced bronchoconstriction” value with SRS-A [8] was “inhibit”. Moreover, the “effect on acetylcholine-induced bronchoconstriction” value in the assay with acetylcholine [10] was “ineffective”.

As for `O=C(O)C1CCCc2c1c1ccccc1n2C(=O)c1ccccc1` (stereo not shown) [c, 9-benzoyl-1,2,3,4-tetrahydrocarbazole-4-carboxylic acid], in the assay on SRS-A [11], the ED50 is 0.3 mg/kg and the “Potency … (95% confidence limits)” value is 16 (6.9-37).

As for `Cc1ccc(C(=O)n2c3c(c4ccccc42)C(C(=O)O)CCC3)cc1` (stereo not shown) [d, 9-(4-toluoyl)-1,2,3,4-tetrahydrocarbazole-4-carboxylic acid], in the assay on SRS-A [11], the ED50 was determined as 5 mg/kg and the “Potency … (95% confidence limits)” value is listed as 1.7 (0.6-6.8).

Consider `COc1ccc2c(c1)c1c(n2C(=O)c2ccccc2)CCCC1C(=O)O` (stereo not shown) [e, 9-benzoyl-6-methoxy-1,2,3,4-tetrahydrocarbazole-4-carboxylic acid], for which, in the assay with SRS-A [11], the ED50 stood at 1 mg/kg and the “Potency … (95% confidence limits)” value was 18 (5.0-86).

`Cc1ccc2c(c1)c1c(n2C(=O)c2ccccc2)CCCC1C(=O)O` (stereo not shown) [f, 9-benzoyl-6-methyl-1,2,3,4-tetrahydrocarbazole-4-carboxylic acid]: in the assay with SRS-A [11], the ED50 turned out to be 1.7 mg/kg and the “Potency … (95% confidence limits)” value was 6.7 (3.2-16).

These data come from patent publication US4174402A, “Method for the prophylaxis of SRS-A-induced symptoms” (priority 1978, dated 1979).
